The results in this text go back to paper PMC4105752 (RNA, 2014).

In the assay the target is T1, TbEIF4E5 (TbE5) (Trypanosoma brucei, UniProt Q38B99).
T1 sequence (Q38B99 1-195): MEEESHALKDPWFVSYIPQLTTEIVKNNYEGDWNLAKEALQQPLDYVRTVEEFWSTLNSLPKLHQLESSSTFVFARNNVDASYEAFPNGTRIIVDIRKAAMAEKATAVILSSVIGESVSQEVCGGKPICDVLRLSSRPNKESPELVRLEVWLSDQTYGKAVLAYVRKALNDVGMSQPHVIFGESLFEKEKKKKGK
Briefly: intrinsic protein fluorescence quenching titration. It counts as binding.

Turning to `Nc1nc2c(ncn2[C@@H]2O[C@H](COP(=O)(O)OP(=O)(O)OP(=O)(O)O)[C@@H](O)[C@H]2O)c(=O)[nH]1` [GTP], the Kd (as a rule, a measure of binding affinity in units of concentration) is around 27 µM.

On to `C[n+]1cn([C@@H]2O[C@H](COP(=O)(O)OP(=O)(O)OP(=O)(O)O)[C@@H](O)[C@H]2O)c2nc(N)[nH]c(=O)c21` [m^7GTP], for which the affinity, expressed as Kd, was 1.54 µM.

Take `C[n+]1cn([C@@H]2O[C@H](COP(=O)(O)OP(=O)(O)OP(=O)(O)OC[C@H]3O[C@@H](n4cnc5c(N)ncnc54)[C@H](O)[C@@H]3O)[C@@H](O)[C@H]2O)c2nc(N)[nH]c(=O)c21` [m^7GpppA]: the Kd was 8.33 µM.

For the setting “50 mM HEPES/KOH pH 7.2, 100 mM KCl, 0.5 mM EDTA, 2 mM DTT, 20 °C”, cap 4 returned a Kas of 0.55 ± 0.01.
